# Results reported in patent US20120058989A1, “ANTIBACTERIAL FLUOROQUINOLONE ANALOGS” (Achaogen, Inc., priority 2008, published 2012).
# Assays:
# Experiment in all cases: MIC, CLSI broth microdilution
# Format in all cases: cell-based
# [1] = tested on: A. baumannii AABA1009 (Fluoroquinolone-resistant); details: Table 2
# Method in brief: (§1)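 MICs were read after 20 hours at 35° C in ambient air, with a final inoculum of 5×10^5 CFU/mL from saline-suspended overnight colonies. Serial two-fold dilutions in Mueller Hinton Broth followed the CLSI reference method (M7-A7), with QC strains E. coli ATCC 25922, P. aeruginosa ATCC 27853 and S. aureus ATCC 29213.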
# [2] = tested on: A. baumannii AABA1020 (Fluoroquinolone-resistant); details: Table 3
# Method in brief: as §1
# [3] = tested on: A. baumannii AABA1065 (Fluoroquinolone-susceptible)
# Method in brief: as §1
# [4] = tested on: E. coli AECO001 (Fluoroquinolone susceptible, ATCC25922)
# Method in brief: as §1
# [5] = tested on: E. coli AECO002 (Fluoroquinolone susceptible); details: Table 3
# Method in brief: as §1
# [6] = tested on: E. coli AECO066 (Fluoroquinolone-resistant)
# Method in brief: as §1
# [7] = tested on: E. coli AECO086 (Fluoroquinolone-resistant); details: Table 3
# Method in brief: as §1
# [8] = tested on: P. aeruginosa APAE001 (Fluoroquinolone-susceptible, ATCC27853)
# Method in brief: as §1
# [9] = tested on: P. aeruginosa APAE002 (Fluoroquinolone susceptible); details: Table 3
# Method in brief: as §1
# [10] = tested on: P. aeruginosa APAE054 (Fluoroquinolone-resistant)
# Method in brief: as §1
# [11] = tested on: S. aureus ASAU001 (Fluoroquinolone-susceptible, ATCC29213)
# Method in brief: as §1
# [12] = tested on: S. aureus ASAU002 (Fluoroquinolone-susceptible, ATCC33591 (MRSA)); details: Table 3
# Method in brief: as §1
# [13] = tested on: S. aureus ASAU1031 (Fluoroquinolone-resistant)
# Method in brief: as §1
# [14] = tested on: S. aureus ASAU1033 (Fluoroquinolone-resistant); details: Table 3
# Method in brief: as §1
# [15] = tested on: S. pneumoniae ASPN001 (Fluoroquinolone-susceptible, ATCC49619)
# Method in brief: as §1
# [16] = tested on: S. pneumoniae ASPN002 (Fluoroquinolone-susceptible, ATCC10813); details: Table 3
# Method in brief: as §1
# [17] = tested on: S. pneumoniae ASPN1018 (Fluoroquinolone-resistant); details: Table 3
# Method in brief: as §1
# [18] = tested on: S. pneumoniae ASPN1027 (Fluoroquinolone-resistant)
# Method in brief: as §1
SMILES,MIC AABA 1009 [1],MIC AABA1020 [2],MIC AABA 1065 ([3]; Table 2),MIC AABA 1065 ([3]; Table 3),"MIC AECO 001 ([4]; Table 2, 35° C., 20 hours)",MIC AECO 001 ([4]; Table 3),MIC AECO002 [5],MIC AECO 066 ([6]; Table 2),MIC AECO 066 ([6]; Table 3),MIC AECO086 [7],MIC APAE 001 ([8]; Table 2),MIC APAE 001 ([8]; Table 3),MIC APAE002 [9],MIC APAE 054 ([10]; Table 2),MIC APAE 054 ([10]; Table 3),MIC ASAU 001 ([11]; Table 2),MIC ASAU 001 ([11]; Table 3),MIC ASAU002 [12],MIC ASAU 1031 ([13]; Table 2),MIC ASAU 1031 ([13]; Table 3),other results
"NC1C[C@@H]2CC=Cc3c(c(F)cc4c(=O)c(C(=O)O)cn(C5CC5)c34)N2C1.O=C(O)C(F)(F)F (stereo partly drawn) [7E/50, (7aS,9)-9-Amino-4-cyclopropyl-12-fluoro-1-oxo-4,7,7a,8,9,10-hexahydro-1H-pyrrolo[1′,2′:1,7]-azepino[2,3-h]quinoline-2-carboxylic acid trifluoroacetate]",C (MIC's of greater than 8.0 μg/mL = C),D (MIC's of greater than 8.0 μg/mL = D),C (MIC's of greater than 8.0 μg/mL = C),D (MIC's of greater than 8.0 μg/mL = D),B (MIC's of greater than 1.0 μg/mL to 8.0 μg/mL = B),C (MIC's of 2.0 μg/mL to 8.0 μg/mL = C),D (MIC's of greater than 8.0 μg/mL = D),C (MIC's of greater than 8.0 μg/mL = C),D (MIC's of greater than 8.0 μg/mL = D),D (MIC's of greater than 8.0 μg/mL = D),C (MIC's of greater than 8.0 μg/mL = C),D (MIC's of greater than 8.0 μg/mL = D),D (MIC's of greater than 8.0 μg/mL = D),C (MIC's of greater than 8.0 μg/mL = C),D (MIC's of greater than 8.0 μg/mL = D),C (MIC's of greater than 8.0 μg/mL = C),D (MIC's of greater than 8.0 μg/mL = D),C (MIC's of 2.0 μg/mL to 8.0 μg/mL = C),C (MIC's of greater than 8.0 μg/mL = C),D (MIC's of greater than 8.0 μg/mL = D),MIC ASAU1033 [14]: D (MIC's of greater than 8.0 μg/mL = D); MIC ASPN 001 ([15]; Table 2): B (MIC's of greater than 1.0 μg/mL to 8.0 μg/mL = B); MIC ASPN 001 ([15]; Table 3): C (MIC's of 2.0 μg/mL to 8.0 μg/mL = C); MIC ASPN002 [16]: C (MIC's of 2.0 μg/mL to 8.0 μg/mL = C); MIC ASPN1018 [17]: C (MIC's of 2.0 μg/mL to 8.0 μg/mL = C); MIC ASPN 1027 ([18]; Table 2): B (MIC's of greater than 1.0 μg/mL to 8.0 μg/mL = B); MIC ASPN 1027 ([18]; Table 3): C (MIC's of 2.0 μg/mL to 8.0 μg/mL = C)
"N[C@@H]1C[C@H]2CCCc3c(c(F)cc4c(=O)c(C(=O)O)cn(C5CC5)c34)N2C1.O=C(O)C(F)(F)F [7D/39, (7aR,9R)-9-Amino-4-cyclopropyl-12-fluoro-1-oxo-4,5,6,7,7a,8,9,10-octahydro-1H-pyrrolo[1′,2′:1,7]-azepino[2,3-h]quinoline-2-carboxylic acid trifluoroacetate]",C (MIC's of greater than 8.0 μg/mL = C),D (MIC's of greater than 8.0 μg/mL = D),A (MIC's of 1.0 μg/mL or less = A),A (MIC's of less than 1.0 = A),A (MIC's of 1.0 μg/mL or less = A),A (MIC's of less than 1.0 = A),A (MIC's of less than 1.0 = A),C (MIC's of greater than 8.0 μg/mL = C),D (MIC's of greater than 8.0 μg/mL = D),D (MIC's of greater than 8.0 μg/mL = D),B (MIC's of greater than 1.0 μg/mL to 8.0 μg/mL = B),C (MIC's of 2.0 μg/mL to 8.0 μg/mL = C),B (MIC's of 1.0 μg/mL to 2.0 μg/mL = B),C (MIC's of greater than 8.0 μg/mL = C),D (MIC's of greater than 8.0 μg/mL = D),A (MIC's of 1.0 μg/mL or less = A),A (MIC's of less than 1.0 = A),A (MIC's of less than 1.0 = A),C (MIC's of greater than 8.0 μg/mL = C),D (MIC's of greater than 8.0 μg/mL = D),MIC ASAU1033 [14]: D (MIC's of greater than 8.0 μg/mL = D); MIC ASPN 001 ([15]; Table 2): B (MIC's of greater than 1.0 μg/mL to 8.0 μg/mL = B); MIC ASPN 001 ([15]; Table 3): B (MIC's of 1.0 μg/mL to 2.0 μg/mL = B); MIC ASPN002 [16]: B (MIC's of 1.0 μg/mL to 2.0 μg/mL = B); MIC ASPN1018 [17]: D (MIC's of greater than 8.0 μg/mL = D); MIC ASPN 1027 ([18]; Table 2): C (MIC's of greater than 8.0 μg/mL = C); MIC ASPN 1027 ([18]; Table 3): D (MIC's of greater than 8.0 μg/mL = D)
"N[C@@H]1CCN2c3c(F)cc4c(=O)c(C(=O)O)cn(C5CC5)c4c3C=CC[C@H]12.O=C(O)C(F)(F)F [16/16, (7aR,8R)-8-Amino-4-cyclopropyl-12-fluoro-1-oxo-4,7,7a,8,9,10-hexahydro-1H-pyrrolo[1′,2′:1,7]azepino[2,3-h]quinoline-2-carboxylic acid trifluoroacetate]",B (MIC's of greater than 1.0 μg/mL to 8.0 μg/mL = B),C (MIC's of 2.0 μg/mL to 8.0 μg/mL = C),A (MIC's of 1.0 μg/mL or less = A),A (MIC's of less than 1.0 = A),A (MIC's of 1.0 μg/mL or less = A),A (MIC's of less than 1.0 = A),A (MIC's of less than 1.0 = A),B (MIC's of greater than 1.0 μg/mL to 8.0 μg/mL = B),C (MIC's of 2.0 μg/mL to 8.0 μg/mL = C),B (MIC's of 1.0 μg/mL to 2.0 μg/mL = B),A (MIC's of 1.0 μg/mL or less = A),A (MIC's of less than 1.0 = A),A (MIC's of less than 1.0 = A),C (MIC's of greater than 8.0 μg/mL = C),D (MIC's of greater than 8.0 μg/mL = D),A (MIC's of 1.0 μg/mL or less = A),A (MIC's of less than 1.0 = A),A (MIC's of less than 1.0 = A),A (MIC's of 1.0 μg/mL or less = A),A (MIC's of less than 1.0 = A),MIC ASAU1033 [14]: B (MIC's of 1.0 μg/mL to 2.0 μg/mL = B); MIC ASPN 001 ([15]; Table 2): A (MIC's of 1.0 μg/mL or less = A); MIC ASPN 001 ([15]; Table 3): A (MIC's of less than 1.0 = A); MIC ASPN002 [16]: A (MIC's of less than 1.0 = A); MIC ASPN1018 [17]: A (MIC's of less than 1.0 = A); MIC ASPN 1027 ([18]; Table 2): B (MIC's of greater than 1.0 μg/mL to 8.0 μg/mL = B); MIC ASPN 1027 ([18]; Table 3): A (MIC's of less than 1.0 = A)
